Results from patent publication US20240150377A1, “MODULATORS OF CYSTIC FIBROSIS TRANSMEMBRANE CONDUCTANCE REGULATOR” (VERTEX PHARMACEUTICALS INCORPORATED, priority 2020, published 2024).
pEC50: −log10 of the molar value.

Biological target: T1, CFTR (Homo sapiens, UniProt P13569, DEL508-508)
T1 construct: endogenous in cells; host or cells: primary human bronchial epithelial cells from CF subjects (F508del/MF-HBE), differentiated at air-liquid interface
Assay: HBE2 assay: Ussing chamber assay of CFTR-mediated short-circuit currents
Assay type: cell-based
Conditions: F508del/MF-HBE cells, 18-24 hours, 20% human serum; for Emax: read-out: HBE2 Max activity (%)
In short: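 Corrector activity read as CFTR-dependent ISC (μA/cm^2): peak forskolin current minus post-inhibitor steady state. Measured at 37 °C, voltage clamp at 0 mV, on F508del/MF-HBE epithelia grown >14 days air-liquid interface in Ussing chambers.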

[1] = 3 μM corrector, with 44 nM potentiator
[2] = corrector at a range of concentrations with 44 nM potentiator

T1 sequence (P13569 with tags, fused parts or gaps DEL508-508): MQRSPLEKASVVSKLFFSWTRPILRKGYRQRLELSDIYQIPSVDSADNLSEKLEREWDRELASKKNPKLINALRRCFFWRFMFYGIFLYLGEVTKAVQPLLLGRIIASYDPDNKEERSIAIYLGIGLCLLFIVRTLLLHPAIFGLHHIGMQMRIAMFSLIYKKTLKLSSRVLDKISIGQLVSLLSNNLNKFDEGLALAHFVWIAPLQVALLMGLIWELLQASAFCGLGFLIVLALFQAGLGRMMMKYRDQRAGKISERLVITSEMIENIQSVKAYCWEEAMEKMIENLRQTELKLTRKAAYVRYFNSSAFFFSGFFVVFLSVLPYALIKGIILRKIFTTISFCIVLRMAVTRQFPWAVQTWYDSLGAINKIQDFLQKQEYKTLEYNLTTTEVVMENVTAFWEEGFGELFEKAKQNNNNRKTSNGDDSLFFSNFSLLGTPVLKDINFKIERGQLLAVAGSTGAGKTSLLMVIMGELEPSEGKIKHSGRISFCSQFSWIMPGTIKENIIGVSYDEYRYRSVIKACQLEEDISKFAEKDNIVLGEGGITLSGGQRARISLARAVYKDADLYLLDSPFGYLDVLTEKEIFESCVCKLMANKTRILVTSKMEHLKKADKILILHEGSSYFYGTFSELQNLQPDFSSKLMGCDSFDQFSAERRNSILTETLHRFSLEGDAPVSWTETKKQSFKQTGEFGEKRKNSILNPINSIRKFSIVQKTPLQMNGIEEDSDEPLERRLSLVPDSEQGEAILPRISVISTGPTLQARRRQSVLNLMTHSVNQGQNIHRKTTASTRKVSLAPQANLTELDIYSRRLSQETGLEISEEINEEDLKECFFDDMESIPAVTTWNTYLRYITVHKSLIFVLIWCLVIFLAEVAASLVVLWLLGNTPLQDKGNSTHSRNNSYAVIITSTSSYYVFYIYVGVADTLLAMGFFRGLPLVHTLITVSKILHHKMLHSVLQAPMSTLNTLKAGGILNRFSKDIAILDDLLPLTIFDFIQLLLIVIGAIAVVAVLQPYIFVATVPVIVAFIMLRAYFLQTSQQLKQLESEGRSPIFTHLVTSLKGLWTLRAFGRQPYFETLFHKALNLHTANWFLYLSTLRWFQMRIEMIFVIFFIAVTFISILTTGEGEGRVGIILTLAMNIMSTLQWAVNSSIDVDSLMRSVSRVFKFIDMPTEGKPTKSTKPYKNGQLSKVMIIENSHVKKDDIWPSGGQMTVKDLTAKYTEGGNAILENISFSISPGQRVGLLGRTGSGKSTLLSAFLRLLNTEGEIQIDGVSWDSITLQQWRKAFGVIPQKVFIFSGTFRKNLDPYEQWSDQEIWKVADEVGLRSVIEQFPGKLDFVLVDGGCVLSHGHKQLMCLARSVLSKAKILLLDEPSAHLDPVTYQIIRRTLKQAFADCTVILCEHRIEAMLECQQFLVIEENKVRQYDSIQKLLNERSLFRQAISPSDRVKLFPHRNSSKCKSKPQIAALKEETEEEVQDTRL

HBE2 Activity at 3 μM (%) [1] | HBE2 Activity at 3 μM (%) (3 μM, with 44 nM potentiator) | SMILES | also measured
+++ (+++ is >60+) | – | Cc1cccc(C)c1-c1cc2nc(n1)NS(=O)(=O)c1cccc(c1)C(=O)N(Cc1cncc(N3CCC[C@@H]4CC[C@@H]43)n1)[C@H](CC1CC1)CO2 [Compound 1839] | –
+++ (+++ is >60+) | – | Cc1cccc(C)c1-c1cc2nc(n1)NS(=O)(=O)c1cccc(c1)C(=O)N(Cc1cncc(N(C)C3CCC3)n1)[C@H](C[C@H]1CCCOC1)CO2 (stereo in doubt) [Compound 1938] | –
+++ (+++ is >60+) | – | Cc1cccc(C)c1-c1cc2nc(n1)NS(=O)(=O)c1cccc(c1)C(=O)N(Cc1cncc(N(C)C3CCC3)n1)[C@H](C1CCCCC1)CO2 [Compound 1733] | pEC50 [2]: > 6.00; Emax (with 44 nM potentiator): > 60%
+++ (+++ is >60+) | – | Cc1cccc(C)c1-c1cc2nc(n1)NS(=O)(=O)c1cccc(c1)C(=O)N(Cc1cncc(N3CCC[C@H]3C(C)C)n1)[C@H](CCC1CC1)CO2 [Compound 1720] | pEC50 [2]: > 6.00; Emax (with 44 nM potentiator): > 60%
+++ (+++ is >60+) | – | CCN(c1cncc(CN2C(=O)c3cccc(c3)S(=O)(=O)Nc3nc(cc(-c4c(C)cccc4C)n3)OC[C@H]2CCC(C)(C)C)n1)C1CCC1 [Compound 1808] | –
+++ (+++ is >60+) | – | Cc1cccc(C)c1-c1cc2nc(n1)NS(=O)(=O)c1cccc(c1)C(=O)N(Cc1cncc(N3CCCC4CCC43)n1)[C@H](CC1CC1)CO2 (stereo in doubt) [Compound 1838] | –
– | +++ (+++ is >60+) | Cc1cccc(C)c1-c1cc2nc(n1)NS(=O)(=O)c1cccc(c1)C(=O)N(Cc1cncc(N3CCCCC34CCC4)n1)[C@H](CC(C)(C)C)CO2 [Compound 1626] | –
+++ (+++ is >60+) | – | Cc1cccc(C)c1-c1cc2nc(n1)NS(=O)(=O)c1cccc(c1)C(=O)N(Cc1cncc(N3CCCC4CCC43)n1)[C@H](CCC(C)(C)C)CO2 (stereo in doubt) [Compound 1781] | –
+++ (+++ is >60+) | – | Cc1cccc(C)c1-c1cc2nc(n1)NS(=O)(=O)c1cccc(c1)C(=O)N(Cc1cncc(N3CCC[C@@H]3C)n1)[C@H](COC1CC1)CO2 (stereo in doubt) [Compound 1892] | –
+++ (+++ is >60+) | – | Cc1cccc(C)c1-c1cc2nc(n1)NS(=O)(=O)c1cccc(c1)C(=O)N(Cc1cncc(N(C)C3CCC3)n1)[C@H](CCC1(C)CC1)CO2 [Compound 1336, 12-[[6-[cyclobutyl(methyl)amino]pyrazin-2-yl]methyl]-6-(2,6-dimethylphenyl)-11-[2-(1-methylcyclopropyl)ethyl]-2,2-dioxo-9-oxa-2λ^6-thia-3,5,12,19-tetrazatricyclo[12.3.1.14,8]nonadeca-1(18),4(19),5,7,14,16-hexaen-13-one] | –
++ (++ is 30-60%) | – | CCC(C)(C)C[C@@H]1COc2cc(-c3c(C)cccc3C)nc(n2)NS(=O)(=O)c2cccc(c2)C(=O)N1Cc1cncc(N2CCCC[C@H]2C)n1 [Compound 1862] | –
– | +++ (+++ is >60+) | CO[C@H]1C[C@H](CN(C)c2cncc(CN3C(=O)c4cccc(c4)S(=O)(=O)Nc4nc(cc(-c5c(C)cccc5C)n4)OC[C@H]3CC(C)(C)C)n2)C1 [Compound 1631] | –
+++ (+++ is >60+) | – | Cc1cccc(C)c1-c1cc2nc(n1)NS(=O)(=O)c1cccc(c1)C(=O)N(Cc1cncc(N(C)[C@H]3C[C@@H](F)C3)n1)[C@H](CCC(C)(C)C)CO2 [Compound 1848] | –
+++ (+++ is >60+) | – | Cc1cccc(C)c1-c1cc2nc(n1)NS(=O)(=O)c1cccc(c1)C(=O)N(Cc1cncc(N3CC[C@@H]3C)n1)[C@H](CC1CCCC1)CO2 (stereo in doubt) [Compound 1843] | –
+++ (+++ is >60+) | – | CCN(C)c1cncc(CN2C(=O)c3cccc(c3)S(=O)(=O)Nc3nc(cc(-c4c(C)cccc4C)n3)OC[C@H]2CCC(C)(C)C)n1 [Compound 1807] | –
+++ (+++ is >60+) | – | Cc1cccc(C)c1-c1cc2nc(n1)NS(=O)(=O)c1cccc(c1)C(=O)N(Cc1cncc(N3CCCC4CCC43)n1)[C@H](CC1(C)CCC1)CO2 (stereo partly shown) [Compound 1793] | –

Second part, the compound before the results:

SMILES | HBE2 Activity at 3 μM (%) [1] | HBE2 Activity at 3 μM (%) (3 μM, with 44 nM potentiator) | also measured
COCCCN(C)c1cncc(CN2C(=O)c3cccc(c3)S(=O)(=O)Nc3nc(cc(-c4c(C)cccc4C)n3)OC[C@H]2CC(C)(C)C)n1 [Compound 1693] | – | +++ (+++ is >60+) | –
Cc1cccc(C)c1-c1cc2nc(n1)NS(=O)(=O)c1cccc(c1)C(=O)N(Cc1cncc(N3CCC(C)(C)[C@H]3C)n1)[C@H](CC(C)(C)C)CO2 (stereo in doubt) [Compound 1723] | +++ (+++ is >60+) | – | –
Cc1cccc(C)c1-c1cc2nc(n1)NS(=O)(=O)c1cccc(c1)C(=O)N(Cc1cnc3cc(C(C)C)n(C)c3n1)[C@H](CC1(C(F)(F)F)CC1)CO2 [Compound 1835] | +++ (+++ is >60+) | – | –
Cc1cccc(C)c1-c1cc2nc(n1)NS(=O)(=O)c1cccc(c1)C(=O)N(Cc1cncc(N3[C@H](C)CC[C@@H]3C)n1)[C@H](CCC(C)(C)C)CO2 [Compound 1917] | +++ (+++ is >60+) | – | –
Cc1cccc(C)c1-c1cc2nc(n1)NS(=O)(=O)c1cccc(c1)C(=O)N(Cc1cncc(N(C)CCOC(C)(C)C)n1)[C@H](CC(C)(C)C)CO2 [Compound 1650] | – | +++ (+++ is >60+) | –
Cc1cccc(C)c1-c1cc2nc(n1)NS(=O)(=O)c1cccc(c1)C(=O)N(Cc1cncc(N3CC[C@@H]4CN(C(=O)OC(C)(C)C)CC43)n1)[C@H](CC(C)(C)C)CO2 (stereo in doubt) [Compound 1649] | – | +++ (+++ is >60+) | –
CO[C@@H]1CC[C@@H]1N(C)c1cncc(CN2C(=O)c3cccc(c3)S(=O)(=O)Nc3nc(cc(-c4c(C)cccc4C)n3)OC[C@H]2CC(C)(C)C)n1 (stereo in doubt) [Compound 1610] | – | – | pEC50 (with 44 nM potentiator): > 6.00; Emax (with 44 nM potentiator): > 60%
Cc1cccc(C)c1-c1cc2nc(n1)NS(=O)(=O)c1cccc(c1)C(=O)N(Cc1coc(N(C)C3CC(F)(F)C3)n1)[C@H](CC(C)(C)C)CO2 [Compound 1647] | – | +++ (+++ is >60+) | –
Cc1cccc(C)c1-c1cc2nc(n1)NS(=O)(=O)c1cccc(c1)C(=O)N(Cc1cncc(NC3CCC3)n1)[C@H](CC(C)(C)C)CO2 [Compound 1603] | – | – | pEC50 (with 44 nM potentiator): > 6.00; Emax (with 44 nM potentiator): > 60%
COC(=O)N(C)c1cncc(CN2C(=O)c3cccc(c3)S(=O)(=O)Nc3nc(cc(-c4c(C)cccc4C)n3)OC[C@H]2CC(C)(C)C)n1 [Compound 1582] | – | +++ (+++ is >60+) | –
Cc1cccc(C)c1-c1cc2nc(n1)NS(=O)(=O)c1cccc(c1)C(=O)N(Cc1cccc(N3CCC[C@H]3C)n1)[C@H](CC1(C)CCC1)CO2 [Compound 1777] | +++ (+++ is >60+) | – | –
CCC(C)Oc1cnc(CN2C(=O)c3cccc(c3)S(=O)(=O)Nc3nc(cc(-c4c(C)cccc4C)n3)OC[C@H]2CCC2CC2)nc1 (stereo partly shown) [Compound 1598] | – | +++ (+++ is >60+) | –
Cc1cccc(C)c1-c1cc2nc(n1)NS(=O)(=O)c1cccc(c1)C(=O)N(Cc1cncc(N3CC4(CCC4)[C@H]3C(C)C)n1)[C@H](CC(C)(C)C)CO2 [Compound 1752] | +++ (+++ is >60+) | – | –
Cc1cccc(C)c1-c1cc2nc(n1)NS(=O)(=O)c1cccc(c1)C(=O)N(Cc1cnc(N3CC(C)(C)C3)cn1)[C@H](CC(C)(C)C)CO2 [Compound 1654] | – | +++ (+++ is >60+) | –
Cc1cccc(C)c1-c1cc2nc(n1)NS(=O)(=O)c1cccc(c1)C(=O)N(Cc1cncc(N(C)CCN(C)C(=O)OC(C)(C)C)n1)[C@H](CC(C)(C)C)CO2 [Compound 1648] | – | +++ (+++ is >60+) | –
